In PubChem BioAssay (NCI):
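Interpolation was linear, between the two tested concentrations surrounding the appropriate level; five concentrations were tested over 48 hours in 96-well plates. TGI: total growth inhibition.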

Tests used:
Assay in all cases: NCI anticancer screen, dose series, 48 h
A549 NSCLC = system: A549 NSCLC
NCI-H23 lung = system: NCI-H23 lung
U251 CNS = system: U251 CNS
UACC-257 melanoma = system: UACC-257 melanoma
NCI-H460 lung = system: NCI-H460 lung
A498 renal = system: A498 renal
ACHN renal = system: ACHN renal
COLO 205 colon = system: COLO 205 colon
IGROV1 ovarian = system: IGROV1 ovarian
TK-10 renal = system: TK-10 renal
KM12 colon = system: KM12 colon
NCI/ADR-RES ovarian = system: NCI/ADR-RES ovarian

SMILES	TGI (A549 NSCLC)	TGI (NCI-H23 lung)	TGI (U251 CNS)	TGI (UACC-257 melanoma)	TGI (NCI-H460 lung)	TGI (A498 renal)	TGI (ACHN renal)	TGI (COLO 205 colon)	TGI (IGROV1 ovarian)	TGI (TK-10 renal)	TGI (KM12 colon)	TGI (NCI/ADR-RES ovarian)
COc1ccc(OC)c(CNc2ccc(O)c(C(=O)NCCc3ccc(F)cc3)c2)c1	> 100 µM	> 100 µM	24.9 µM	41 µM	> 100 µM	59.9 µM	> 100 µM	40.2 µM	20.9 µM	94.9 µM	25.9 µM	> 100 µM
N#CC1N(C(=O)c2ccc(F)cc2)c2ccccc2N1C(=O)c1ccc(F)cc1	> 100 µM	> 100 µM	> 100 µM	> 100 µM	> 100 µM	> 100 µM	> 100 µM	45.6 µM	> 100 µM	> 100 µM	> 100 µM	93.5 µM
Cc1cc(NC2=NCCO2)c2c(c1C)CCCC2	> 100 µM	> 100 µM	63.1 µM	39.1 µM	63 µM	49.8 µM	> 100 µM	46.6 µM	> 100 µM	> 100 µM	33.5 µM	73.1 µM
C1OCN2c3nonc3N3COCN4c5nonc5N1C2C43 (stereo unspecified)	> 100 µM	> 100 µM	> 100 µM	> 100 µM	> 100 µM	> 100 µM	> 100 µM	> 100 µM	> 100 µM	> 100 µM	> 100 µM	> 100 µM
Cc1ccc(S(=O)(=Nc2ccccc2)C(C(C)C)C(C)(C)Cl)cc1 (stereo unspecified)	> 50 µM	46.5 µM	> 50 µM	> 50 µM	45.4 µM	> 50 µM	> 50 µM	7.56 µM	> 50 µM	> 50 µM	> 50 µM	> 50 µM
CCOC(=O)N(CC)c1c(C(F)(F)F)cc(-c2ccccc2)[nH]c1=O	> 100 µM	> 100 µM	> 100 µM	> 100 µM	> 100 µM	> 100 µM	> 100 µM	> 100 µM	> 100 µM	> 100 µM	> 100 µM	> 100 µM
CC(O)(c1ccccc1)c1nccc2ccccc12 (stereo unspecified)	> 100 µM	> 100 µM	> 100 µM	> 100 µM	> 100 µM	> 100 µM	> 100 µM	> 100 µM	> 100 µM	> 100 µM	> 100 µM	> 100 µM
CC(=O)Oc1ccc(OC(Oc2ccccc2)c2ccccc2)cc1 (stereo unspecified)	> 100 µM	47.6 µM	35.5 µM	64.5 µM	49.3 µM	43.5 µM	72.1 µM	> 100 µM	> 100 µM	> 100 µM	58.7 µM	90.3 µM
CCCCCC(/C=C/[C@@H]1CC(=O)C[C@H]1O[Si](C)(C)C(C)(C)C)OCOCCOC (stereo partly specified)	33.5 µM	12.9 µM	8.08 µM	11 µM	40.2 µM	18.1 µM	8.76 µM	17.8 µM	9.48 µM	26.3 µM	8.96 µM	10.5 µM
O=c1c2c([nH]c3cc4c(cc13)OCO4)-c1ccccc1CCC2	> 50 µM	> 50 µM	> 50 µM	> 50 µM	> 50 µM	> 50 µM	> 50 µM	> 50 µM	> 50 µM	> 50 µM	> 50 µM	> 50 µM
FC1CCN(C2(c3cccs3)CCCCC2)CC1	> 100 µM	> 100 µM	> 100 µM	> 100 µM	> 100 µM	> 100 µM	> 100 µM	> 100 µM	> 100 µM	> 100 µM	> 100 µM	> 100 µM
C=CCN1CC2CN=NC2(C#N)C1 (stereo unspecified)	> 100 µM	> 100 µM	> 100 µM	> 100 µM	> 100 µM	> 100 µM	> 100 µM	> 100 µM	> 100 µM	> 100 µM	> 100 µM	> 100 µM
COc1cc2c3c(cc(Cl)nc3c1OC)C(O)(CC(C)=O)C(=O)N2 (stereo unspecified)	> 62.3 µM	> 60.8 µM	> 100 µM	21.5 µM	> 89.6 µM	33.2 µM	> 54 µM	> 100 µM	36.6 µM	37.3 µM	> 61.6 µM	> 63.9 µM
CCOC(=O)/C=C(/C(=O)OCC)n1c(=O)c(C)cn(C2CC(N=[N+]=[N-])C(CO)O2)c1=O (stereo unspecified)	> 100 µM	> 100 µM	37.4 µM	86.1 µM	> 100 µM	> 100 µM	> 100 µM	30.1 µM	> 100 µM	> 100 µM	> 100 µM	> 100 µM
CC1(C)Oc2ccc(Cl)cc2C12CC2	48.4 µM	59 µM	29.4 µM	30.1 µM	39.7 µM	29.9 µM	30.1 µM	32.9 µM	28.7 µM	40.7 µM	53.1 µM	44 µM
O=C(CCc1cc(O)cc(O)c1)NCCc1ccc(O)c(O)c1	> 100 µM	> 100 µM	> 100 µM	> 100 µM	> 100 µM	> 100 µM	> 100 µM	> 100 µM	> 100 µM	> 100 µM	> 100 µM	> 100 µM
Oc1[nH]c2ccccc2c1N=NC(=S)N1CCCCCC1	6.57 µM	8.51 µM	8.16 µM	5.88 µM	5.28 µM	2.3 µM	8.73 µM	6.2 µM	2.35 µM	7.86 µM	2.22 µM	1.42 µM
O=[N+]([O-])c1cccc2nc3ccccc3c(NCCC[N+]3([O-])CCCCC3)c12	3.92 µM	0.622 µM	1.24 µM	0.55 µM	1.18 µM	2.47 µM	47.5 µM	0.317 µM	6.33 µM	10.9 µM	2.07 µM	> 100 µM
